Earlier results on one compound are cited in patent publication US20220016116A1, “DETERMINING DRUG COMBINATIONS, SYNERGISTIC DRUG COMBINATION AND USE THEREOF IN PANCREATIC CANCER TREATMENT” (Innoplexus AG, priority 2020, published 2022).

Series [1] concerns the target human epidermal growth factor receptor (EGFR) family (EGFR/HER1, HER2, and HER4) tyrosine kinases. Conditions: read-out: IC50 (affinity).
The conditions of series [2]: independent of drug concentrations from 250 ng/mL to 1000 ng/mL.
Series [3] relates to PDAC cell.
Setting [4] is: 45 mg orally once daily, CV 35%.

Turning to `COc1cc2ncnc(Nc3ccc(F)c(Cl)c3)c2cc1NC(=O)/C=C/CN1CCCCC1` [Dacomitinib, (2E)-N-16-4-(piperidin-1-yl) but-2-enamide], under setting [4], the “Cmax, geometric mean” value is 108 ng/mL and the “area under the concentration-time curve (AUC)” value is 2213 ng·h/mL. Besides, the volume of distribution (CV 18%) is 1889 L. In addition, where the note is “after oral administration”, the mean absolute bioavailability is reported as 80%. Moreover, the “time to reach maximum concentration” value (oral) is “approximately 6.0 h”. The concentration for half-maximal inhibition (IC50) in series [1] was 6 nM. In addition, the “bound to plasma proteins” value in series [2] is given as 98%. Besides, in series [3] (through inhibition of EMT markers ZEB1, Snail and N-cadherin), the “cell migration and invasion” value was “attenuated cell migration and invasion”. The PDAC cell proliferation result in series [3] (via inhibition of FOXM1 and its targets Aurora kinase B and cyclin B1) is reported as “diminishes PDAC cell proliferation”. For the same compound, the apoptosis and radio-sensitivity entry in series [3] (via inhibition of anti-apoptotic proteins survivin and MCL1) is “induces apoptosis and potentiated radio-sensitivity”.
